Reference: US20050209237A1, “Method for decreasing capillary permeability in the retina” (priority 2002, published 2005)

Test system: BRB breakdown in mice exposed to vascular endothelial growth factor (VEGF)
Experiment: BRB breakdown quantitated with intraperitoneal [3H]-mannitol tracer in mice after intravitreal VEGF
Assay type: in vivo, C57B/J6 mice
Settings: gavage 50 mg/kg for three days prior to intravitreal VEGF 10^-6 M, [3H]-mannitol tracer at 6 hours
From the text: Intraperitoneally administered radiolabeled tracer can be used to quantitate BRB breakdown in mice exposed to vascular endothelial growth factor (VEGF). This technique is particularly advantageous with neonatal mice because of the technical difficulty involved with intravascular injections. Also, the comparison of retinas from injected and control eyes to tissues without a blood-tissue barrier corrects for variations in the amount of isotope injected or absorbed into the circulation.
Ten six- to seven-week-old C57B/J6 mice (Jackson Labs, Bar Harbor, Me.) are weighed to determine the proper dosage of anesthesia and tracer required. Mice are anesthetized with a solution containing 25 mg/kg ketamine (Ketaset; Fort Dodge Animal Health, Fort Dodge, Iowa) and 4 mg/kg rompun (Tranquived; Vedco, St. Joseph, Mo.) diluted 1:10 in saline prior to injection. […]
One ml NCSII (Amersham, Chicago, Ill.) solubilizing solution is added to each vial and the vials are incubated overnight in a 50° C. water bath. […] The specimens are counted on a Wallace 1409 Liquid Scintillation Counter (Gaithersburg, :Md.).
The counts per mg tissue are determined for treated (with 4-pyridylmethyl-phthalazine derivative) and untreated retina, lung, and kidney. Ratios of these values for treated or untreated retina/lung or kidney and for lung/kidney are calculated. […]

4-pyridylmethyl-phthalazine was tested, and the retina/kidney ratio (VEGF/vehicle-treated 0.6806±0.1060, Student-t value 0.0201) was 0.3881±0.0436 and the “retina/lung ratio (cpm per mg of retina/cpm per mg of lung)” value (VEGF/vehicle-treated 0.8785±0.0946, Student-t value 0.0467) was 0.6326±0.0656.
